Data as given in patent US9708314B2, “Heterocyclic amide compound” (NISSAN CHEMICAL INDUSTRIES, LTD., priority 2013, dated 2017).

Experiments:
Assay type in all cases: in vivo
[1] = system: Echinochloa oryzacola Vasing.; experiment: Test Example 1: herbicidal activity, application before weed generation in submerged conditions; settings: Application herbicide amount 320 g/ha; Seventeenth Table
How it was run: (§1)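 Water-diluted emulsion formulation is applied onto flood water (4 cm deep) covering alluvial soil on the day weed seeds are sown, after transplanting 2.5 leaf stage rice. Rates are expressed per hectare. Injury or control is graded 0–5 three weeks later.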

Monochoria vaginalis = experiment: as above; settings: Application herbicide amount 320 g/ha; Seventeenth Table
How it was run: as §1

Scirpus juncoides = experiment: as above; settings: Application herbicide amount 320 g/ha; Seventeenth Table
How it was run: as §1

[2] = system: transplanted Oryza sativa; experiment: Test Example 1: effect on crop, application before weed generation in submerged conditions; settings: Application herbicide amount 320 g/ha; Seventeenth Table
How it was run: as §1

Abutilon theophrasti = experiment: Test Example 4: herbicidal effect by application to foliage (diluvial soil, plastic box); settings: application to foliage, application herbicide amount 320 g/ha
How it was run: (§2)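 Greenhouse plants (25° C. to 30° C., 14 d, diluvial soil) receive a foliar spray of water-diluted emulsifiable formulation at defined g/ha. Grading after 3 weeks uses a six-step herbicidal-ratio scale, with 4 covering 70% to <90% and 1 covering 5% to <20%.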

Alopecurus myosuroides = experiment: as above; settings: application to foliage, application herbicide amount 320 g/ha
How it was run: as §2

Apera spica-venti. = experiment: as above; settings: application to foliage, application herbicide amount 320 g/ha
How it was run: as §2

Avena fatua = experiment: as above; settings: application to foliage, application herbicide amount 320 g/ha
How it was run: as §2

Chenopodium album = experiment: as above; settings: application to foliage, application herbicide amount 320 g/ha
How it was run: as §2

Digitaria ciliaris = experiment: as above; settings: application to foliage, application herbicide amount 320 g/ha
How it was run: as §2

[3] = system: Echinochloa crus-galli var. crus-galli; experiment: as above; settings: application to foliage, application herbicide amount 320 g/ha
How it was run: as §2

Galium spurium = experiment: as above; settings: application to foliage, application herbicide amount 320 g/ha
How it was run: as §2

Lolium multiflorum Lam. = experiment: as above; settings: application to foliage, application herbicide amount 320 g/ha
How it was run: as §2

Setaria viridis = experiment: as above; settings: application to foliage, application herbicide amount 320 g/ha
How it was run: as §2

Veronica persica = experiment: as above; settings: application to foliage, application herbicide amount 320 g/ha
How it was run: as §2

For COc1ccccc1-c1nnc2c(C(=O)Nc3nnc(C)o3)ccc(C(F)(F)F)n12 [1-047], the “A: Echinochloa oryzicola Vasing. (herbicidal effect grade)” value [1] was 4 (Herbicidal ratio of 70% or more and less than 90%), the “C: Monochoria vaginalis (herbicidal effect grade)” value (shortened to “C: Monochoria vaginalis”) (Monochoria vaginalis) was 2 (Herbicidal ratio of 20% or more and less than 40%) and the “B: Scirpus juncoides (herbicidal effect grade)” value (“B: Scirpus juncoides” below) (Scirpus juncoides) was 3 (Herbicidal ratio of 40% or more and less than 70%). For the same compound, the “a: transplanted Oryza sativa (effect on crop grade)” value (shortened to “a: transplanted Oryza sativa”) [2] was 1 (Herbicidal ratio of 5% or more and less than 20%), the “M (Abutilon theophrasti) herbicidal effect” value (Abutilon theophrasti) was 5 (Herbicidal ratio of 90% or more (almost completely withered)) and the “J (Alopecurus myosuroides) herbicidal effect” value (Alopecurus myosuroides) was 0 (Herbicidal ratio of 5% or less (almost no effect)). For the same compound, the “L (Apera spica-venti.) herbicidal effect” value (Apera spica-venti.) was 1 (Herbicidal ratio of 5% or more and less than 20%), the “I (Avena fatua) herbicidal effect” value (Avena fatua) was 1 (Herbicidal ratio of 5% or more and less than 20%) and the “O (Chenopodium album) herbicidal effect” value (Chenopodium album) was 5 (Herbicidal ratio of 90% or more (almost completely withered)). The “F (Digitaria ciliaris) herbicidal effect” value (Digitaria ciliaris) was 4 (Herbicidal ratio of 70% or more and less than 90%), the “H (Echinochloa crus-galli var. crus-galli) herbicidal effect” value [3] was 5 (Herbicidal ratio of 90% or more (almost completely withered)) and the “Q (Galium spurium) herbicidal effect” value (Galium spurium) was 2 (Herbicidal ratio of 20% or more and less than 40%). For the same compound, the “K (Lolium multiflorum Lam.) herbicidal effect” value (Lolium multiflorum Lam.) was 0 (Herbicidal ratio of 5% or less (almost no effect)), the “G (Setaria viridis) herbicidal effect” value (Setaria viridis) was 4 (Herbicidal ratio of 70% or more and less than 90%) and the “R (Veronica persica) herbicidal effect” value (Veronica persica) was 4 (Herbicidal ratio of 70% or more and less than 90%).

For Cc1nnc(NC(=O)c2ccc(C(F)(F)F)n3c(CC(=O)O)nnc23)o1 [1-048], the “A: Echinochloa oryzicola Vasing. (herbicidal effect grade)” value [1] was 3 (Herbicidal ratio of 40% or more and less than 70%), the “C: Monochoria vaginalis” value (Monochoria vaginalis) was 0 (Herbicidal ratio of 5% or less (almost no effect)) and the “B: Scirpus juncoides” value (Scirpus juncoides) was 0 (Herbicidal ratio of 5% or less (almost no effect)). For the same compound, the “a: transplanted Oryza sativa” value [2] was 1 (Herbicidal ratio of 5% or more and less than 20%), the “M (Abutilon theophrasti) herbicidal effect” value (Abutilon theophrasti) was 5 (Herbicidal ratio of 90% or more (almost completely withered)) and the “J (Alopecurus myosuroides) herbicidal effect” value (Alopecurus myosuroides) was 1 (Herbicidal ratio of 5% or more and less than 20%). For the same compound, the “L (Apera spica-venti.) herbicidal effect” value (Apera spica-venti.) was 2 (Herbicidal ratio of 20% or more and less than 40%), the “I (Avena fatua) herbicidal effect” value (Avena fatua) was 2 (Herbicidal ratio of 20% or more and less than 40%) and the “O (Chenopodium album) herbicidal effect” value (Chenopodium album) was 5 (Herbicidal ratio of 90% or more (almost completely withered)). The “F (Digitaria ciliaris) herbicidal effect” value (Digitaria ciliaris) was 5 (Herbicidal ratio of 90% or more (almost completely withered)), the “H (Echinochloa crus-galli var. crus-galli) herbicidal effect” value [3] was 5 (Herbicidal ratio of 90% or more (almost completely withered)) and the “Q (Galium spurium) herbicidal effect” value (Galium spurium) was 3 (Herbicidal ratio of 40% or more and less than 70%). The “K (Lolium multiflorum Lam.) herbicidal effect” value (Lolium multiflorum Lam.) was 1 (Herbicidal ratio of 5% or more and less than 20%), the “G (Setaria viridis) herbicidal effect” value (Setaria viridis) was 3 (Herbicidal ratio of 40% or more and less than 70%) and the “R (Veronica persica) herbicidal effect” value (Veronica persica) was 4 (Herbicidal ratio of 70% or more and less than 90%).

With Cc1nnc(NC(=O)c2ccc(C(F)(F)F)n3c(CC(=O)OC(C)C)nnc23)o1 [1-049] the “A: Echinochloa oryzicola Vasing. (herbicidal effect grade)” value [1] was 5 (Herbicidal ratio of 90% or more (almost completely withered)), the “C: Monochoria vaginalis” value (Monochoria vaginalis) was 0 (Herbicidal ratio of 5% or less (almost no effect)) and the “B: Scirpus juncoides” value (Scirpus juncoides) was 2 (Herbicidal ratio of 20% or more and less than 40%). For the same compound, the “a: transplanted Oryza sativa” value [2] was 0 (Herbicidal ratio of 5% or less (almost no effect)), the “M (Abutilon theophrasti) herbicidal effect” value (Abutilon theophrasti) was 5 (Herbicidal ratio of 90% or more (almost completely withered)) and the “J (Alopecurus myosuroides) herbicidal effect” value (Alopecurus myosuroides) was 2 (Herbicidal ratio of 20% or more and less than 40%). The “L (Apera spica-venti.) herbicidal effect” value (Apera spica-venti.) was 3 (Herbicidal ratio of 40% or more and less than 70%), the “I (Avena fatua) herbicidal effect” value (Avena fatua) was 0 (Herbicidal ratio of 5% or less (almost no effect)) and the “O (Chenopodium album) herbicidal effect” value (Chenopodium album) was 5 (Herbicidal ratio of 90% or more (almost completely withered)). For the same compound, the “F (Digitaria ciliaris) herbicidal effect” value (Digitaria ciliaris) was 5 (Herbicidal ratio of 90% or more (almost completely withered)), the “H (Echinochloa crus-galli var. crus-galli) herbicidal effect” value [3] was 5 (Herbicidal ratio of 90% or more (almost completely withered)) and the “Q (Galium spurium) herbicidal effect” value (Galium spurium) was 3 (Herbicidal ratio of 40% or more and less than 70%). For the same compound, the “K (Lolium multiflorum Lam.) herbicidal effect” value (Lolium multiflorum Lam.) was 2 (Herbicidal ratio of 20% or more and less than 40%), the “G (Setaria viridis) herbicidal effect” value (Setaria viridis) was 4 (Herbicidal ratio of 70% or more and less than 90%) and the “R (Veronica persica) herbicidal effect” value (Veronica persica) was 4 (Herbicidal ratio of 70% or more and less than 90%).

CC(C)c1nnc2c(C(=O)Nc3nnco3)ccc(C(F)(F)F)n12 [1-050] was tested, and the “A: Echinochloa oryzicola Vasing. (herbicidal effect grade)” value [1] was 5 (Herbicidal ratio of 90% or more (almost completely withered)), the “C: Monochoria vaginalis” value (Monochoria vaginalis) was 4 (Herbicidal ratio of 70% or more and less than 90%) and the “B: Scirpus juncoides” value (Scirpus juncoides) was 5 (Herbicidal ratio of 90% or more (almost completely withered)). For the same compound, the “a: transplanted Oryza sativa” value [2] was 2 (Herbicidal ratio of 20% or more and less than 40%), the “M (Abutilon theophrasti) herbicidal effect” value (Abutilon theophrasti) was 5 (Herbicidal ratio of 90% or more (almost completely withered)) and the “J (Alopecurus myosuroides) herbicidal effect” value (Alopecurus myosuroides) was 2 (Herbicidal ratio of 20% or more and less than 40%). The “L (Apera spica-venti.) herbicidal effect” value (Apera spica-venti.) was 3 (Herbicidal ratio of 40% or more and less than 70%), the “I (Avena fatua) herbicidal effect” value (Avena fatua) was 3 (Herbicidal ratio of 40% or more and less than 70%) and the “O (Chenopodium album) herbicidal effect” value (Chenopodium album) was 5 (Herbicidal ratio of 90% or more (almost completely withered)). The “F (Digitaria ciliaris) herbicidal effect” value (Digitaria ciliaris) was 5 (Herbicidal ratio of 90% or more (almost completely withered)), the “H (Echinochloa crus-galli var. crus-galli) herbicidal effect” value [3] was 5 (Herbicidal ratio of 90% or more (almost completely withered)) and the “Q (Galium spurium) herbicidal effect” value (Galium spurium) was 2 (Herbicidal ratio of 20% or more and less than 40%). For the same compound, the “K (Lolium multiflorum Lam.) herbicidal effect” value (Lolium multiflorum Lam.) was 3 (Herbicidal ratio of 40% or more and less than 70%), the “G (Setaria viridis) herbicidal effect” value (Setaria viridis) was 4 (Herbicidal ratio of 70% or more and less than 90%) and the “R (Veronica persica) herbicidal effect” value (Veronica persica) was 5 (Herbicidal ratio of 90% or more (almost completely withered)).

CC(C)c1nnc2c(C(=O)Nc3nnc(C4CC4)o3)ccc(C(F)(F)F)n12 [1-051] was tested, and the “A: Echinochloa oryzicola Vasing. (herbicidal effect grade)” value [1] was 5 (Herbicidal ratio of 90% or more (almost completely withered)), the “C: Monochoria vaginalis” value (Monochoria vaginalis) was 4 (Herbicidal ratio of 70% or more and less than 90%) and the “B: Scirpus juncoides” value (Scirpus juncoides) was 4 (Herbicidal ratio of 70% or more and less than 90%). For the same compound, the “a: transplanted Oryza sativa” value [2] was 0 (Herbicidal ratio of 5% or less (almost no effect)), the “M (Abutilon theophrasti) herbicidal effect” value (Abutilon theophrasti) was 5 (Herbicidal ratio of 90% or more (almost completely withered)) and the “J (Alopecurus myosuroides) herbicidal effect” value (Alopecurus myosuroides) was 0 (Herbicidal ratio of 5% or less (almost no effect)). For the same compound, the “L (Apera spica-venti.) herbicidal effect” value (Apera spica-venti.) was 1 (Herbicidal ratio of 5% or more and less than 20%), the “I (Avena fatua) herbicidal effect” value (Avena fatua) was 1 (Herbicidal ratio of 5% or more and less than 20%) and the “O (Chenopodium album) herbicidal effect” value (Chenopodium album) was 5 (Herbicidal ratio of 90% or more (almost completely withered)). The “F (Digitaria ciliaris) herbicidal effect” value (Digitaria ciliaris) was 3 (Herbicidal ratio of 40% or more and less than 70%), the “H (Echinochloa crus-galli var. crus-galli) herbicidal effect” value [3] was 4 (Herbicidal ratio of 70% or more and less than 90%) and the “Q (Galium spurium) herbicidal effect” value (Galium spurium) was 2 (Herbicidal ratio of 20% or more and less than 40%). The “K (Lolium multiflorum Lam.) herbicidal effect” value (Lolium multiflorum Lam.) was 1 (Herbicidal ratio of 5% or more and less than 20%), the “G (Setaria viridis) herbicidal effect” value (Setaria viridis) was 3 (Herbicidal ratio of 40% or more and less than 70%) and the “R (Veronica persica) herbicidal effect” value (Veronica persica) was 3 (Herbicidal ratio of 40% or more and less than 70%).

With COCCc1nnc(NC(=O)c2ccc(C(F)(F)F)n3c(C(C)C)nnc23)o1 [1-052] the “A: Echinochloa oryzicola Vasing. (herbicidal effect grade)” value [1] was 3 (Herbicidal ratio of 40% or more and less than 70%), the “C: Monochoria vaginalis” value (Monochoria vaginalis) was 2 (Herbicidal ratio of 20% or more and less than 40%) and the “B: Scirpus juncoides” value (Scirpus juncoides) was 3 (Herbicidal ratio of 40% or more and less than 70%). The “a: transplanted Oryza sativa” value [2] was 0 (Herbicidal ratio of 5% or less (almost no effect)), the “M (Abutilon theophrasti) herbicidal effect” value (Abutilon theophrasti) was 4 (Herbicidal ratio of 70% or more and less than 90%) and the “J (Alopecurus myosuroides) herbicidal effect” value (Alopecurus myosuroides) was 1 (Herbicidal ratio of 5% or more and less than 20%). The “L (Apera spica-venti.) herbicidal effect” value (Apera spica-venti.) was 3 (Herbicidal ratio of 40% or more and less than 70%), the “I (Avena fatua) herbicidal effect” value (Avena fatua) was 0 (Herbicidal ratio of 5% or less (almost no effect)) and the “O (Chenopodium album) herbicidal effect” value (Chenopodium album) was 5 (Herbicidal ratio of 90% or more (almost completely withered)). For the same compound, the “F (Digitaria ciliaris) herbicidal effect” value (Digitaria ciliaris) was 3 (Herbicidal ratio of 40% or more and less than 70%), the “H (Echinochloa crus-galli var. crus-galli) herbicidal effect” value [3] was 2 (Herbicidal ratio of 20% or more and less than 40%) and the “Q (Galium spurium) herbicidal effect” value (Galium spurium) was 1 (Herbicidal ratio of 5% or more and less than 20%). For the same compound, the “K (Lolium multiflorum Lam.) herbicidal effect” value (Lolium multiflorum Lam.) was 1 (Herbicidal ratio of 5% or more and less than 20%), the “G (Setaria viridis) herbicidal effect” value (Setaria viridis) was 1 (Herbicidal ratio of 5% or more and less than 20%) and the “R (Veronica persica) herbicidal effect” value (Veronica persica) was 3 (Herbicidal ratio of 40% or more and less than 70%).
